Measurements: ChEMBL document CHEMBL1201862, “PubChem BioAssay data set” (2004)
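Compound exposure: 48 hours, 5 concentrations, 96-well plates. Here, GI50 denotes the concentration required for 50% inhibition of growth.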 Activity calls are given as the source filed them. No stated cut-off is given here; in the data, active = GI50 up to about 1.1 µM and inactive = higher.

How the values were obtained:
Assay in all cases: growth of human tumour cells (NCI), 48 h
HOP-62 = tested on: HOP-62
NCI-H522 = tested on: NCI-H522
A549 = tested on: A549
SK-OV-3 = tested on: SK-OV-3
SK-MEL-2 = tested on: SK-MEL-2
RXF 631 = tested on: RXF 631
ACHN = tested on: ACHN
HT-29 = tested on: HT-29
SF-268 = tested on: SF-268
COLO 205 = tested on: COLO 205
OVCAR-8 = tested on: OVCAR-8
DLD-1 = tested on: DLD-1
SK-MEL-28 = tested on: SK-MEL-28
U-251 = tested on: U-251
TK-10 = tested on: TK-10
OVCAR-3 = tested on: OVCAR-3
A498 = tested on: A498
OVCAR-5 = tested on: OVCAR-5
SF-539 = tested on: SF-539
SNB-19 = tested on: SNB-19
CAKI-1 = tested on: CAKI-1
CCRF-CEM = tested on: CCRF-CEM
HL-60 = tested on: HL-60
OVCAR-4 = tested on: OVCAR-4
SR = tested on: SR
DMS-114 = tested on: DMS-114
KM12 = tested on: KM12
SN12C = tested on: SN12C
HCT-116 = tested on: HCT-116
DMS-273 = tested on: DMS-273
UACC-62 = tested on: UACC-62
786-0 = tested on: 786-0
SNB-78 = tested on: SNB-78
UACC-257 = tested on: UACC-257
SW-620 = tested on: SW-620
HOP-92 = tested on: HOP-92
EKVX = tested on: EKVX
SK-MEL-5 = tested on: SK-MEL-5
NCI-H226 = tested on: NCI-H226
RPMI-8226 = tested on: RPMI-8226
Malme-3M = tested on: Malme-3M
M19-MEL = tested on: M19-MEL
NCI-H460 = tested on: NCI-H460
SNB-75 = tested on: SNB-75
XF498 = tested on: XF498
RXF 393 = tested on: RXF 393
NCI-H23 = tested on: NCI-H23
K562 = tested on: K562
LXFL 529 = tested on: LXFL 529
SF-295 = tested on: SF-295
HCC 2998 = tested on: HCC 2998
UO-31 = tested on: UO-31
HCT-15 = tested on: HCT-15
MOLT-4 = tested on: MOLT-4
IGROV-1 = tested on: IGROV-1
KM-20L2 = tested on: KM-20L2
M14 = tested on: M14
HOP-18 = tested on: HOP-18

COC(=O)Cc1nc2ccccc2o1
GI50 (HOP-62): > 100 µM (inactive)
GI50 (NCI-H522): 40.1 µM (inactive)
GI50 (A549): 74.6 µM (inactive)
GI50 (SK-OV-3): > 100 µM (inactive)
GI50 (SK-MEL-2): 65.8 µM (inactive)
GI50 (RXF 631): > 100 µM (inactive)
GI50 (ACHN): 41.7 µM (inactive)
GI50 (HT-29): 90.8 µM (inactive)
GI50 (SF-268): > 100 µM (inactive)
GI50 (COLO 205): 95.1 µM (inactive)
GI50 (OVCAR-8): 55.5 µM (inactive)
GI50 (DLD-1): 45.1 µM (inactive)
GI50 (SK-MEL-28): > 100 µM (inactive)
GI50 (U-251): 83.8 µM (inactive)
GI50 (TK-10): 46.2 µM (inactive)
GI50 (OVCAR-3): 69 µM (inactive)
GI50 (A498): > 100 µM (inactive)
GI50 (OVCAR-5): 45.2 µM (inactive)
GI50 (SF-539): 72.3 µM (inactive)
GI50 (SNB-19): > 100 µM (inactive)
GI50 (CAKI-1): 37.9 µM (inactive)
GI50 (CCRF-CEM): 44.3 µM (inactive)
GI50 (HL-60): 12.5 µM (inactive)
GI50 (OVCAR-4): > 100 µM (inactive)
GI50 (SR): > 100 µM (inactive)
GI50 (DMS-114): 36.1 µM (inactive)
GI50 (KM12): 66.5 µM (inactive)
GI50 (SN12C): > 100 µM (inactive)
GI50 (HCT-116): 91.2 µM (inactive)
GI50 (DMS-273): 36.4 µM (inactive)
GI50 (UACC-62): 20.2 µM (inactive)
GI50 (786-0): > 100 µM (inactive)
GI50 (SNB-78): > 100 µM (inactive)
GI50 (UACC-257): 47 µM (inactive)
GI50 (SW-620): 95.1 µM (inactive)
GI50 (HOP-92): > 100 µM (inactive)
GI50 (EKVX): > 100 µM (inactive)
GI50 (SK-MEL-5): 50.8 µM (inactive)
GI50 (NCI-H226): > 100 µM (inactive)
GI50 (RPMI-8226): 17.8 µM (inactive)
GI50 (Malme-3M): > 100 µM (inactive)
GI50 (M19-MEL): 30.5 µM (inactive)
GI50 (NCI-H460): 80.5 µM (inactive)
GI50 (SNB-75): > 100 µM (inactive)
GI50 (XF498): 59 µM (inactive)
GI50 (RXF 393): > 100 µM (inactive)
GI50 (NCI-H23): > 100 µM (inactive)
GI50 (K562): 32.4 µM (inactive)
GI50 (LXFL 529): 49.3 µM (inactive)
GI50 (SF-295): 41.1 µM (inactive)
GI50 (HCC 2998): 88.5 µM (inactive)
GI50 (UO-31): > 100 µM (inactive)
GI50 (HCT-15): 33.3 µM
GI50 (MOLT-4): 67.9 µM (inactive)
GI50 (IGROV-1): > 100 µM (inactive)
GI50 (KM-20L2): 20.5 µM (inactive)
GI50 (M14): 51.6 µM (inactive)
GI50 (HOP-18): > 100 µM (inactive)

O=C(CCC(=O)C1CCC/C1=N/O)Nc1ccc(Cl)cc1 (centres undefined)
GI50 (HOP-62): > 100 µM (inactive)
GI50 (NCI-H522): > 100 µM (inactive)
GI50 (A549): > 100 µM (inactive)
GI50 (SK-OV-3): > 100 µM (inactive)
GI50 (SK-MEL-2): > 100 µM (inactive)
GI50 (RXF 631): > 100 µM (inactive)
GI50 (ACHN): > 100 µM (inactive)
GI50 (HT-29): > 100 µM (inactive)
GI50 (SF-268): > 100 µM (inactive)
GI50 (COLO 205): > 100 µM (inactive)
GI50 (OVCAR-8): > 100 µM (inactive)
GI50 (DLD-1): > 100 µM (inactive)
GI50 (SK-MEL-28): > 100 µM (inactive)
GI50 (U-251): > 100 µM (inactive)
GI50 (TK-10): > 100 µM (inactive)
GI50 (OVCAR-3): > 100 µM (inactive)
GI50 (A498): > 100 µM (inactive)
GI50 (OVCAR-5): > 100 µM (inactive)
GI50 (SF-539): > 100 µM (inactive)
GI50 (SNB-19): > 100 µM (inactive)
GI50 (CAKI-1): > 100 µM (inactive)
GI50 (CCRF-CEM): > 100 µM (inactive)
GI50 (HL-60): > 100 µM (inactive)
GI50 (OVCAR-4): > 100 µM (inactive)
GI50 (SR): > 100 µM (inactive)
GI50 (KM12): > 100 µM (inactive)
GI50 (SN12C): > 100 µM (inactive)
GI50 (HCT-116): > 100 µM (inactive)
GI50 (DMS-273): > 100 µM (inactive)
GI50 (UACC-62): > 100 µM (inactive)
GI50 (786-0): > 100 µM (inactive)
GI50 (SNB-78): > 100 µM (inactive)
GI50 (UACC-257): > 100 µM (inactive)
GI50 (SW-620): > 100 µM (inactive)
GI50 (HOP-92): > 100 µM (inactive)
GI50 (EKVX): > 100 µM (inactive)
GI50 (SK-MEL-5): > 100 µM (inactive)
GI50 (NCI-H226): > 100 µM (inactive)
GI50 (RPMI-8226): > 100 µM (inactive)
GI50 (Malme-3M): > 100 µM (inactive)
GI50 (M19-MEL): > 100 µM (inactive)
GI50 (NCI-H460): > 100 µM (inactive)
GI50 (SNB-75): 74.5 µM (inactive)
GI50 (XF498): > 100 µM (inactive)
GI50 (NCI-H23): > 100 µM (inactive)
GI50 (K562): > 100 µM (inactive)
GI50 (LXFL 529): > 100 µM (inactive)
GI50 (SF-295): > 100 µM (inactive)
GI50 (HCC 2998): > 100 µM (inactive)
GI50 (UO-31): > 100 µM (inactive)
GI50 (HCT-15): > 100 µM
GI50 (MOLT-4): > 100 µM (inactive)
GI50 (IGROV-1): > 100 µM (inactive)
GI50 (KM-20L2): > 100 µM (inactive)
GI50 (M14): > 100 µM (inactive)
GI50 (HOP-18): > 100 µM (inactive)
